According to patent US8952024B2, “Herbicidal pyrimidone derivatives” (E I du Pont de Nemours and Company, priority 2009, dated 2015):

Columns and labels:
Type in all cases: in vivo
[1] = tested on: chickweed (Stellaria media); assay: Test B postemergence plant response
Summary of the method: (§1)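 Plants at the 1- to 4-leaf stage (2 to 18 cm tall), grown in pots of peat moss/vermiculite medium with wetting agent and starter nutrients, received postemergence applications of test chemicals. After 13 to 15 days in a greenhouse, injury was rated visually against untreated controls on a 0 (no effect) to 100 (complete control) scale.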

[2] = tested on: windgrass (Apera spica-venti); assay: Test B postemergence plant response
Summary of the method: as §1

[3] = tested on: canarygrass (Phalaris minor); assay: Test B postemergence plant response
Summary of the method: as §1

[4] = tested on: blackgrass (Alopecurus myosuroides); assay: Test B pre-/postemergence plant response
Source text: (§2) Seeds of plant species selected from blackgrass (Alopecurus myosuroides), downy bromegrass (Bromus tectorum), green foxtail (Setaria viridis), Italian ryegrass (Lolium multiflorum), wheat (Triticum aestivum), wild oat (Avena fatua), deadnettle (henbit deadnettle, Lamium amplexicaule), galium (catchweed bedstraw, Galium aparine), bermudagrass (Cynodon dactylon), Surinam grass (Brachiaria decumbens), cocklebur (Xanthium strumarium), corn (Zea mays), large crabgrass (Digitaria sanguinalis), woolly cupgrass (Eriochloa villosa), giant foxtail (Setaria faberii), goosegrass (Eleusine indica), johnsongrass (Sorghum halepense), kochia (Kochia scoparia), lambsquarters (Chenopodium album), morningglory (Ipomoea coccinea), nightshade (eastern black nightshade, Solanum ptycanthum), yellow nutsedge (Cyperus esculentus), pigweed (Amaranthus retroflexus), ragweed (common ragweed, Ambrosia elatior), Russian thistle (Salsola kali), soybean (Glycine max), sunflower (common oilseed sunflower, Helianthus annuus) and velvetleaf (Abutilon theophrasti) were planted into a blend of loam soil and sand and treated preemergence with test compounds formulated in a non-phytotoxic solvent mixture which included a surfactant.
(§3) At the same time, plants selected from these crop and weed species and also winter barley (Hordeum vulgare), canarygrass (Phalaris minor), chickweed (Stellaria media) and windgrass (Apera spica-venti) were planted in pots containing Redi-Earth® planting medium (Scotts Company, 14111 Scottslawn Road, Marysville, Ohio 43041) comprising spaghnum peat moss, vermiculite, wetting agent and starter nutrients and treated with postemergence applications of some of the test chemicals formulated in the same manner. Plants ranged in height from 2 to 18 cm (1- to 4-leaf stage) for postemergence treatments.
(§4) Treated plants and controls were maintained in a greenhouse for 13 to 15 days, after which time all treated plants were visually evaluated and compared to controls. Plant response ratings, summarized in Table B, are based on a scale of 0 to 100 where 0 is no effect and 100 is complete control. A dash (-) response means no test result.

[5] = tested on: johnsongrass (Sorghum halepense); assay: Test B pre-/postemergence plant response
Source text: as §2, §3, §4

kochia (Kochia scoparia) = assay: Test B pre-/postemergence plant response
Source text: as §2, §3, §4

[6] = tested on: morningglory (Ipomoea coccinea); assay: Test B pre-/postemergence plant response
Source text: as §2, §3, §4

[7] = tested on: wheat (Triticum aestivum); assay: Test B pre-/postemergence plant response
Source text: as §2, §3, §4

[8] = tested on: bermudagrass (Cynodon dactylon); assay: Test B pre-/postemergence plant response
Source text: as §2, §3, §4

soybean (Glycine max) = assay: Test B pre-/postemergence plant response
Source text: as §2, §3, §4

[9] = tested on: yellow nutsedge (Cyperus esculentus); assay: Test B pre-/postemergence plant response
Source text: as §2, §3, §4

[10] = tested on: green foxtail (Setaria viridis); assay: Test B pre-/postemergence plant response
Source text: as §2, §3, §4

[11] = tested on: ragweed (common ragweed, Ambrosia elatior); assay: Test B pre-/postemergence plant response
Source text: as §2, §3, §4

[12] = tested on: velvetleaf (Abutilon theophrasti); assay: Test B pre-/postemergence plant response
Source text: as §2, §3, §4

[13] = tested on: giant foxtail (Setaria faberii); assay: Test B pre-/postemergence plant response
Source text: as §2, §3, §4

[14] = tested on: downy bromegrass (Bromus tectorum); assay: Test B pre-/postemergence plant response
Source text: as §2, §3, §4

[15] = tested on: cocklebur (Xanthium strumarium); assay: Test B pre-/postemergence plant response
Source text: as §2, §3, §4

wild oat (Avena fatua) = assay: Test B pre-/postemergence plant response
Source text: as §2, §3, §4

[16] = 31 g ai/ha, postemergence, scale 0 to 100, 0 is no effect, 100 is complete control
[17] = 62 g ai/ha, postemergence, 0 is no effect, 100 is complete control, 13 to 15 days
[18] = Postemergence, 125 g ai/ha, visual rating after 13 to 15 days, scale 0 (no effect) to 100 (complete control)
[19] = Postemergence, 250 g ai/ha, scale 0 to 100 (0 no effect, 100 complete control)

Structure (SMILES): O=C1CCCC(O)=C1C(=O)c1cnc(-c2ccccc2)n(C2CC2)c1=O [Compound 90]
- Plant response rating, Chickweed [1, 16]: 70
- Chickweed plant response rating (0 to 100 scale) [1, 17]: 80
- Plant response rating, Chickweed [1, 18]: 85
- Plant response rating, Chickweed [1, 19]: 90
- Plant response rating, Windgrass [2, 16]: 0
- Windgrass plant response rating (0 to 100 scale) [2, 17]: 5
- Plant response rating, Windgrass [2, 19]: 50
- Plant response rating, Canarygrass [3, 16]: 5
- Canarygrass plant response rating (0 to 100 scale) [3, 17]: 10
- Plant response rating, Canarygrass [3, 18]: 30
- Plant response rating, Canarygrass [3, 19]: 30
- Plant response rating, Blackgrass [4, 16]: 5
- Blackgrass plant response rating (0 to 100 scale) [4, 17]: 5
- Plant response rating, Blackgrass [4, 18]: 5
- Plant response rating, Blackgrass [4, 19]: 30
- Plant response rating, Johnsongrass [5, 16]: 10
- Johnsongrass plant response rating (0 to 100 scale) [5, 17]: 25
- Plant response rating, Johnsongrass [5, 19]: 65
- Plant response rating, Kochia (kochia (Kochia scoparia); [16]): 65
- Kochia plant response rating (0 to 100 scale) (kochia (Kochia scoparia); [17]): 85
- Plant response rating, Kochia (kochia (Kochia scoparia); [19]): 98
- Plant response rating, Morningglory [6, 16]: 65
- Morningglory plant response rating (0 to 100 scale) [6, 17]: 95
- Plant response rating, Morningglory [6, 19]: 100
- Plant response rating, Wheat [7, 16]: 5
- Wheat plant response rating (0 to 100 scale) [7, 17]: 10
- Plant response rating, Wheat [7, 19]: 35
- Plant response rating, Bermudagrass [8, 16]: 70
- Bermudagrass plant response rating (0 to 100 scale) [8, 17]: 80
- Plant response rating, Bermudagrass [8, 18]: 85
- Plant response rating, Bermudagrass [8, 19]: 85
- Plant response rating, Soybean (soybean (Glycine max); [16]): 98
- Soybean plant response rating (0 to 100 scale) (soybean (Glycine max); [17]): 98
- Plant response rating, Soybean (soybean (Glycine max); [19]): 100
- Plant response rating, Nutsedge, Yellow [9, 16]: 60
- Nutsedge, Yellow plant response rating (0 to 100 scale) [9, 17]: 65
- Plant response rating, Nutsedge, Yellow [9, 19]: 75
- Plant response rating, Foxtail, Green [10, 16]: 65
- Foxtail, Green plant response rating (0 to 100 scale) [10, 17]: 65
- Plant response rating, Foxtail, Green [10, 19]: 90
- Plant response rating, Ragweed [11, 16]: 60
- Ragweed plant response rating (0 to 100 scale) [11, 17]: 75
- Plant response rating, Ragweed [11, 19]: 95
- Plant response rating, Velvetleaf [12, 16]: 85
- Velvetleaf plant response rating (0 to 100 scale) [12, 17]: 98
- Plant response rating, Velvetleaf [12, 19]: 100
- Plant response rating, Foxtail, Giant [13, 16]: 65
- Foxtail, Giant plant response rating (0 to 100 scale) [13, 17]: 70
- Plant response rating, Foxtail, Giant [13, 19]: 85
- Plant response rating, Bromegrass, Downy [14, 16]: 5
- Bromegrass, Downy plant response rating (0 to 100 scale) [14, 17]: 5
- Plant response rating, Bromegrass, Downy [14, 18]: 10
- Plant response rating, Bromegrass, Downy [14, 19]: 10
- Plant response rating, Cocklebur [15, 16]: 75
- Cocklebur plant response rating (0 to 100 scale) [15, 17]: 90
- Plant response rating, Cocklebur [15, 18]: 100
- Plant response rating, Cocklebur [15, 19]: 100
- Plant response rating, Oat, Wild (wild oat (Avena fatua); [16]): 0
- Oat, Wild plant response rating (0 to 100 scale) (wild oat (Avena fatua); [17]): 5
- Plant response rating, Oat, Wild (wild oat (Avena fatua); [19]): 20
